Consider 19 compounds from PubChem BioAssay AID256 (DTP/NCI, 2004).

Several values for one entry are separate records, joined by “and”; a condition that tells them apart may be missing. Equal entries are not always repeated. Inconclusive results and toxic doses are left out.

The test system of the test is CD2F1 mice, L1210 leukemia ip, survival T/C. In words: NCI In Vivo Anticancer Drug Screen. Data for tumor model L1210 Leukemia (intraperitoneal) in CD2F1 (CDF1) mice. The following applies: higher = longer survival. In a few lines: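 Activity against a transplanted murine tumor was judged by comparing the compound group with a vehicle group. The outcome in the treated animals was divided by that in the controls.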

[1] abbreviates: endpoint: mean survival time, dose: 200.0 mg/kg/injection, schedule: Q01DX001 (ip), vehicle: saline with Tween-80.
Where [2] appears, read: endpoint: mean survival time, dose: 100.0 mg/kg/injection, schedule: Q01DX001 (ip), vehicle: saline.
Where [3] appears, read: endpoint: mean survival time, dose: 200.0 mg/kg/injection, schedule: Q01DX001 (ip), vehicle: saline.
Setting [4] is: endpoint: mean survival time, dose: 100.0 mg/kg/injection, schedule: Q01DX009 (ip), vehicle: saline with Tween-80.
[5] abbreviates: endpoint: mean survival time, dose: 200.0 mg/kg/injection, schedule: Q01DX009 (ip), vehicle: saline with Tween-80.
Setting [6] is: endpoint: mean survival time, dose: 400.0 mg/kg/injection, schedule: Q01DX009 (ip), vehicle: saline with Tween-80.
The mark [7] stands for this setting: endpoint: median survival time, dose: 25.0 mg/kg/injection, schedule: Q01DX009 (ip), vehicle: Klucel (hydroxypropylcellulose) (HPC).
Where [8] appears, read: endpoint: median survival time, dose: 50.0 mg/kg/injection, schedule: Q01DX009 (ip), vehicle: Klucel (hydroxypropylcellulose) (HPC).
Setting [9] is: endpoint: mean survival time, dose: 400.0 mg/kg/injection, schedule: Q01DX001 (ip), vehicle: saline.
Where [10] appears, read: endpoint: mean survival time, dose: 25.0 mg/kg/injection, schedule: Q01DX009 (ip), vehicle: saline with Tween-80.

For `CC(=O)OC1C(NC(=O)N(CCCl)N=O)C(OC(C)=O)C(OC(C)=O)C(NC(=O)N(CCCl)N=O)C1OC(C)=O` (stereo not drawn), the T/C was 124 % of control (endpoint: mean survival time, dose: 20.0 mg/kg/injection, schedule: Q01DX001 (ip), vehicle: saline with Tween-80); 164 % of control (endpoint: mean survival time, dose: 60.0 mg/kg/injection, schedule: Q01DX001 (ip), vehicle: saline with Tween-80); 160 % of control (endpoint: mean survival time, dose: 90.0 mg/kg/injection, schedule: Q01DX001 (ip), vehicle: saline with Tween-80); 174 % of control (endpoint: mean survival time, dose: 130.0 mg/kg/injection, schedule: Q01DX001 (ip), vehicle: saline with Tween-80); 168 % of control under setting [1]; 218 % of control (endpoint: mean survival time, dose: 300.0 mg/kg/injection, schedule: Q01DX001 (ip), vehicle: saline with Tween-80).
Turning to `COC(=O)c1nc2ccccc2cc1C#N`, the T/C under setting [2] is 97 % of control and the T/C under setting [3] is 96 % of control.
Consider `Brc1ccc(Sc2ccccc2)cc1`, for which the T/C under setting [4] is 98 % of control, the T/C under setting [5] is 93 % of control and the T/C under setting [6] is 96 % of control.
As to `CCCOc1cc[n+]([O-])c2ccccc12`, the T/C by setting is: (endpoint: mean survival time, dose: 100.0 mg/kg/injection, schedule: Q04DX002 (ip), vehicle: saline with Tween-80) 94 % of control; (endpoint: mean survival time, dose: 200.0 mg/kg/injection, schedule: Q04DX002 (ip), vehicle: saline with Tween-80) 94 % of control.
In the case of `c1ccc(C2SCCCS2)cc1`, the T/C runs as follows: (endpoint: mean survival time, dose: 100.0 mg/kg/injection, schedule: Q04DX003 (ip), vehicle: other) 101 % of control; (endpoint: mean survival time, dose: 200.0 mg/kg/injection, schedule: Q04DX003 (ip), vehicle: other) 97 % of control; (endpoint: mean survival time, dose: 400.0 mg/kg/injection, schedule: Q04DX003 (ip), vehicle: other) 101 % of control.
Regarding `Cc1cc(N/N=C/c2ccccn2)nc2ccccc12`, the T/C was 102 % of control (endpoint: median survival time, dose: 6.25 mg/kg/injection, schedule: Q01DX009 (ip), vehicle: Klucel (hydroxypropylcellulose) (HPC)); 100 % of control (endpoint: median survival time, dose: 12.5 mg/kg/injection, schedule: Q01DX009 (ip), vehicle: Klucel (hydroxypropylcellulose) (HPC)); 97 % of control under setting [7]; 110 % of control under setting [8].
Take `CC(=O)Nn1cnc2c(SCc3ccccc3)ncnc21`: the T/C is 95 % of control (endpoint: mean survival time, dose: 177.0 mg/kg/injection, schedule: Q01DX001 (ip), vehicle: saline); 95 % of control (endpoint: mean survival time, dose: 266.0 mg/kg/injection, schedule: Q01DX001 (ip), vehicle: saline); 97 % of control under setting [9]; 96 % of control (endpoint: mean survival time, dose: 600.0 mg/kg/injection, schedule: Q01DX001 (ip), vehicle: saline).
Consider `Nc1ccc(C(OC(=O)c2cc3ccccc3c(Cc3c(O)c(C(=O)OC(c4ccc(N)cc4)(c4ccc(N)cc4)c4ccc(N)cc4)cc4ccccc34)c2O)(c2ccc(N)cc2)c2ccc(N)cc2)cc1`, for which the T/C (endpoint: mean survival time, dose: 0.78 mg/kg/injection, schedule: Q01DX009 (ip), vehicle: saline with Tween-80) is 100 % of control and 111 % of control; the T/C (endpoint: mean survival time, dose: 1.56 mg/kg/injection, schedule: Q01DX009 (ip), vehicle: saline with Tween-80) was 123 % of control and 102 % of control; the T/C (endpoint: mean survival time, dose: 3.12 mg/kg/injection, schedule: Q01DX009 (ip), vehicle: saline with Tween-80) was 105 % of control; the T/C (endpoint: mean survival time, dose: 3.13 mg/kg/injection, schedule: Q01DX009 (ip), vehicle: saline with Tween-80) was 101 % of control; the T/C (endpoint: mean survival time, dose: 6.25 mg/kg/injection, schedule: Q01DX009 (ip), vehicle: saline with Tween-80) is 104 % of control and 107 % of control; the T/C (endpoint: mean survival time, dose: 12.5 mg/kg/injection, schedule: Q01DX009 (ip), vehicle: saline with Tween-80) is 88 % of control and 110 % of control. The T/C under setting [10] is 101 % of control.
Regarding `Nc1ncnc2c(C3OC(CO)C(O)C3O)c[nH]c12` (stereo not drawn), the T/C runs as follows: (endpoint: median survival time, dose: 0.05 mg/kg/injection, schedule: Q01DX005 (ip), vehicle: saline) 114 % of control and 121 % of control; (endpoint: median survival time, dose: 0.1 mg/kg/injection, schedule: Q01DX005 (ip), vehicle: saline) 116 % of control and 123 % of control; (endpoint: median survival time, dose: 0.4 mg/kg/injection, schedule: Q01DX005 (ip), vehicle: saline) 115 % of control; (endpoint: median survival time, dose: 0.8 mg/kg/injection, schedule: Q01DX005 (ip), vehicle: saline) 102 % of control and 104 % of control.
For the compound `O=C(O)c1ccc([As](=O)(O)O)cc1[N+](=O)[O-]`, the T/C was 105 % of control (endpoint: mean survival time, dose: 50.0 mg/kg/injection, schedule: Q04DX003 (ip), vehicle: saline); 97 % of control (endpoint: mean survival time, dose: 100.0 mg/kg/injection, schedule: Q04DX003 (ip), vehicle: saline); 95 % of control (endpoint: mean survival time, dose: 200.0 mg/kg/injection, schedule: Q04DX003 (ip), vehicle: saline).
For the compound `Cc1cc(=O)[nH]c2[nH]c(=O)ccc12`, the T/C is 100 % of control under setting [2], 96 % of control under setting [3] and 96 % of control under setting [9].
Turning to `O=[N+]([O-])c1cc(Cl)cc2c1-c1ccc(Cl)cc1C2Br` (stereo not drawn), the T/C reads like this: (endpoint: mean survival time, dose: 50.0 mg/kg/injection, schedule: Q01DX001 (ip), vehicle: carboxymethylcellulose (CMC)) 104 % of control; (endpoint: mean survival time, dose: 100.0 mg/kg/injection, schedule: Q01DX001 (ip), vehicle: carboxymethylcellulose (CMC)) 98 % of control; (endpoint: mean survival time, dose: 200.0 mg/kg/injection, schedule: Q01DX001 (ip), vehicle: carboxymethylcellulose (CMC)) 104 % of control; (endpoint: mean survival time, dose: 400.0 mg/kg/injection, schedule: Q01DX001 (ip), vehicle: carboxymethylcellulose (CMC)) 104 % of control.
For `CCCCCCCCCCCCOC(=O)C[n+]1cccc(C(=O)Nc2ccc(Cl)cc2)c1`, the T/C is 101 % of control under setting [10]; 96 % of control (endpoint: mean survival time, dose: 50.0 mg/kg/injection, schedule: Q01DX009 (ip), vehicle: saline with Tween-80); 103 % of control (endpoint: mean survival time, dose: 100.0 mg/kg/injection, schedule: Q04DX003 (ip), vehicle: saline with Tween-80).
On to `CCOC(=O)C(=O)Cc1cc(=O)cc(C)o1`, for which the T/C by setting is: under setting [4], 95 % of control; under setting [5], 92 % of control; under setting [6], 93 % of control.
For the compound `c1ccc(CNc2nnnc3ccccc23)cc1`, the T/C runs as follows: (endpoint: mean survival time, dose: 100.0 mg/kg/injection, schedule: Q01DX001 (ip), vehicle: saline with Tween-80) 100 % of control; under setting [1], 88 % of control; (endpoint: mean survival time, dose: 400.0 mg/kg/injection, schedule: Q01DX001 (ip), vehicle: saline with Tween-80) 94 % of control.
For the compound `Cn1c(=O)c2c(nc(NCCOC(=S)S)n2C)n(C)c1=O`, the T/C by setting is: (endpoint: mean survival time, dose: 12.5 mg/kg/injection, schedule: Q01DX005 (ip), vehicle: distilled water + Tween-80) 94 % of control; (endpoint: mean survival time, dose: 25.0 mg/kg/injection, schedule: Q01DX005 (ip), vehicle: distilled water + Tween-80) 91 % of control; (endpoint: mean survival time, dose: 50.0 mg/kg/injection, schedule: Q01DX005 (ip), vehicle: distilled water + Tween-80) 100 % of control.
In the case of `CC1(C)CC(OP(=O)(c2ccccc2)c2ccccc2)CC(C)(C)N1O`, the T/C was 106 % of control (endpoint: mean survival time, dose: 100.0 mg/kg/injection, schedule: Q04DX003 (ip), vehicle: water); 91 % of control (endpoint: mean survival time, dose: 200.0 mg/kg/injection, schedule: Q04DX003 (ip), vehicle: water); 102 % of control (endpoint: mean survival time, dose: 400.0 mg/kg/injection, schedule: Q04DX003 (ip), vehicle: water).
For `C=CCOCC(O)CNCCCC` (stereo not drawn), the T/C runs as follows: (endpoint: mean survival time, dose: 12.5 mg/kg/injection, schedule: Q01DX009 (ip), vehicle: saline) 96 % of control; (endpoint: mean survival time, dose: 25.0 mg/kg/injection, schedule: Q01DX009 (ip), vehicle: saline) 107 % of control; (endpoint: mean survival time, dose: 50.0 mg/kg/injection, schedule: Q01DX009 (ip), vehicle: saline) 96 % of control and 111 % of control.
Consider `O=C1N[C@H]2[C@H](CS[C@H]2CCCCC(=O)N(CCP(c2ccccc2)c2ccccc2)CCP(c2ccccc2)c2ccccc2)N1`, for which the T/C is 100 % of control and 107 % of control under setting [7]; 98 % of control and 107 % of control under setting [8]; 103 % of control and 109 % of control (endpoint: median survival time, dose: 100.0 mg/kg/injection, schedule: Q01DX009 (ip), vehicle: Klucel (hydroxypropylcellulose) (HPC)); 97 % of control and 110 % of control (endpoint: median survival time, dose: 200.0 mg/kg/injection, schedule: Q01DX009 (ip), vehicle: Klucel (hydroxypropylcellulose) (HPC)); 90 % of control and 108 % of control (endpoint: median survival time, dose: 400.0 mg/kg/injection, schedule: Q01DX009 (ip), vehicle: Klucel (hydroxypropylcellulose) (HPC)).
